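All cell lines were grown in 96-well plates and treated with compound for 48 hours. TGI marks complete inhibition of growth.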
Key:
Test in all cases: NCI-60 cell line screen, 48 h
DMS 273 small cell lung = system: DMS 273 small cell lung
SK-MEL-2 melanoma = system: SK-MEL-2 melanoma
SF-268 CNS = system: SF-268 CNS
HT29 colon = system: HT29 colon
SK-MEL-5 melanoma = system: SK-MEL-5 melanoma
SK-MEL-28 melanoma = system: SK-MEL-28 melanoma
NCI-H460 lung = system: NCI-H460 lung
CAKI-1 renal = system: CAKI-1 renal
MOLT-4 leukemia = system: MOLT-4 leukemia
XF 498 CNS = system: XF 498 CNS
OVCAR-3 ovarian = system: OVCAR-3 ovarian
SF-295 CNS = system: SF-295 CNS
CCRF-CEM leukemia = system: CCRF-CEM leukemia
UACC-257 melanoma = system: UACC-257 melanoma
UACC-62 melanoma = system: UACC-62 melanoma
LXFL 529 NSCLC = system: LXFL 529 NSCLC
M14 melanoma = system: M14 melanoma
U251 CNS = system: U251 CNS
A549 NSCLC = system: A549 NSCLC
K-562 leukemia = system: K-562 leukemia
EKVX NSCLC = system: EKVX NSCLC
NCI-H522 lung = system: NCI-H522 lung
SK-OV-3 ovarian = system: SK-OV-3 ovarian
KM12 colon = system: KM12 colon
HL-60(TB) leukemia = system: HL-60(TB) leukemia
RXF-631 renal = system: RXF-631 renal
UO-31 renal = system: UO-31 renal
HCC-2998 colon = system: HCC-2998 colon
LOX IMVI melanoma = system: LOX IMVI melanoma
SF-539 CNS = system: SF-539 CNS
SN12C renal = system: SN12C renal
RPMI-8226 leukemia = system: RPMI-8226 leukemia
SNB-19 CNS = system: SNB-19 CNS
HCT-15 colon = system: HCT-15 colon
RXF 393 renal = system: RXF 393 renal
ACHN renal = system: ACHN renal
OVCAR-5 ovarian = system: OVCAR-5 ovarian
KM20L2 colon = system: KM20L2 colon
786-0 renal = system: 786-0 renal
OVCAR-8 ovarian = system: OVCAR-8 ovarian
SNB-75 CNS = system: SNB-75 CNS
MALME-3M melanoma = system: MALME-3M melanoma
IGROV1 ovarian = system: IGROV1 ovarian
OVCAR-4 ovarian = system: OVCAR-4 ovarian
A498 renal = system: A498 renal
SW-620 colon = system: SW-620 colon
DMS 114 small cell lung = system: DMS 114 small cell lung
SNB-78 CNS = system: SNB-78 CNS
NCI-H23 lung = system: NCI-H23 lung
COLO 205 colon = system: COLO 205 colon
TK-10 renal = system: TK-10 renal
HOP-62 NSCLC = system: HOP-62 NSCLC
NCI-H226 lung = system: NCI-H226 lung
M19-MEL melanoma = system: M19-MEL melanoma
HOP-18 NSCLC = system: HOP-18 NSCLC
DLD-1 colon = system: DLD-1 colon
HCT-116 colon = system: HCT-116 colon
HOP-92 NSCLC = system: HOP-92 NSCLC

For `CC1(C)COC(c2cccc3c2C(=O)c2cccc(Cl)c2-3)=N1`, the TGI (DMS 273 small cell lung) was > 100 µM, the TGI (SK-MEL-2 melanoma) was > 100 µM and the TGI (SF-268 CNS) was > 100 µM. The TGI (HT29 colon) was > 100 µM, the TGI (SK-MEL-5 melanoma) was 73.4 µM and the TGI (SK-MEL-28 melanoma) was > 100 µM. The TGI (NCI-H460 lung) was > 100 µM, the TGI (CAKI-1 renal) was > 100 µM and the TGI (MOLT-4 leukemia) was > 100 µM. The TGI (XF 498 CNS) was > 100 µM, the TGI (OVCAR-3 ovarian) was > 100 µM and the TGI (SF-295 CNS) was > 100 µM. The TGI (CCRF-CEM leukemia) was > 100 µM, the TGI (UACC-257 melanoma) was > 100 µM and the TGI (UACC-62 melanoma) was > 100 µM. For the same compound, the TGI (LXFL 529 NSCLC) was > 100 µM, the TGI (M14 melanoma) was > 100 µM and the TGI (U251 CNS) was > 100 µM. For the same compound, the TGI (A549 NSCLC) was > 100 µM, the TGI (K-562 leukemia) was > 100 µM and the TGI (EKVX NSCLC) was > 100 µM. For the same compound, the TGI (NCI-H522 lung) was > 100 µM, the TGI (SK-OV-3 ovarian) was > 100 µM and the TGI (KM12 colon) was > 100 µM. For the same compound, the TGI (HL-60(TB) leukemia) was > 100 µM, the TGI (RXF-631 renal) was > 100 µM and the TGI (UO-31 renal) was > 100 µM. For the same compound, the TGI (HCC-2998 colon) was > 100 µM, the TGI (LOX IMVI melanoma) was > 100 µM and the TGI (SF-539 CNS) was > 100 µM. For the same compound, the TGI (SN12C renal) was > 100 µM, the TGI (RPMI-8226 leukemia) was > 100 µM and the TGI (SNB-19 CNS) was > 100 µM. The TGI (HCT-15 colon) was > 100 µM, the TGI (RXF 393 renal) was 68.2 µM and the TGI (ACHN renal) was > 100 µM. The TGI (OVCAR-5 ovarian) was > 100 µM, the TGI (KM20L2 colon) was > 100 µM and the TGI (786-0 renal) was > 100 µM. The TGI (OVCAR-8 ovarian) was > 100 µM, the TGI (SNB-75 CNS) was > 100 µM and the TGI (MALME-3M melanoma) was > 100 µM. The TGI (IGROV1 ovarian) was > 100 µM, the TGI (OVCAR-4 ovarian) was > 100 µM and the TGI (A498 renal) was > 100 µM. The TGI (SW-620 colon) was > 100 µM, the TGI (DMS 114 small cell lung) was > 100 µM and the TGI (SNB-78 CNS) was > 100 µM. For the same compound, the TGI (NCI-H23 lung) was > 100 µM, the TGI (COLO 205 colon) was > 100 µM and the TGI (TK-10 renal) was > 100 µM.

`Cc1ccc(C)c(NC(=O)c2cccc([N+](=O)[O-])c2O)c1` was tested, and the TGI (DMS 273 small cell lung) was 77.5 µM, the TGI (SF-268 CNS) was > 100 µM and the TGI (HT29 colon) was > 100 µM. The TGI (SK-MEL-5 melanoma) was 25.2 µM, the TGI (HOP-62 NSCLC) was 47.1 µM and the TGI (SK-MEL-28 melanoma) was > 100 µM. For the same compound, the TGI (NCI-H226 lung) was 68.8 µM, the TGI (NCI-H460 lung) was 68.4 µM and the TGI (CAKI-1 renal) was > 100 µM. The TGI (MOLT-4 leukemia) was > 100 µM, the TGI (XF 498 CNS) was 67.3 µM and the TGI (OVCAR-3 ovarian) was > 100 µM. The TGI (M19-MEL melanoma) was 82.1 µM, the TGI (SF-295 CNS) was 41.5 µM and the TGI (CCRF-CEM leukemia) was > 100 µM. The TGI (UACC-257 melanoma) was 63 µM, the TGI (HOP-18 NSCLC) was > 100 µM and the TGI (UACC-62 melanoma) was 82.9 µM. The TGI (LXFL 529 NSCLC) was > 100 µM, the TGI (M14 melanoma) was > 100 µM and the TGI (U251 CNS) was > 100 µM. For the same compound, the TGI (A549 NSCLC) was > 100 µM, the TGI (K-562 leukemia) was > 100 µM and the TGI (EKVX NSCLC) was > 100 µM. The TGI (NCI-H522 lung) was 67.2 µM, the TGI (SK-OV-3 ovarian) was > 100 µM and the TGI (KM12 colon) was 61.5 µM. The TGI (DLD-1 colon) was > 100 µM, the TGI (HL-60(TB) leukemia) was > 100 µM and the TGI (UO-31 renal) was 51.9 µM. For the same compound, the TGI (HCT-116 colon) was 81 µM, the TGI (HCC-2998 colon) was > 100 µM and the TGI (LOX IMVI melanoma) was 53.5 µM. The TGI (SF-539 CNS) was > 100 µM, the TGI (SN12C renal) was > 100 µM and the TGI (RPMI-8226 leukemia) was > 100 µM. The TGI (SNB-19 CNS) was > 100 µM, the TGI (HCT-15 colon) was > 100 µM and the TGI (RXF 393 renal) was 37.8 µM. The TGI (ACHN renal) was 57.6 µM, the TGI (OVCAR-5 ovarian) was > 100 µM and the TGI (KM20L2 colon) was > 100 µM. The TGI (786-0 renal) was > 100 µM, the TGI (HOP-92 NSCLC) was 41.3 µM and the TGI (OVCAR-8 ovarian) was > 100 µM. For the same compound, the TGI (SNB-75 CNS) was 63.8 µM, the TGI (MALME-3M melanoma) was 81.6 µM and the TGI (IGROV1 ovarian) was > 100 µM. For the same compound, the TGI (OVCAR-4 ovarian) was 80.8 µM, the TGI (A498 renal) was 80.9 µM and the TGI (SW-620 colon) was > 100 µM. It also gave a TGI (DMS 114 small cell lung) of 47.6 µM, a TGI (SNB-78 CNS) of 56.9 µM and a TGI (NCI-H23 lung) of 49 µM. It also gave a TGI (COLO 205 colon) of 31.1 µM.

From PubChem BioAssay (NCI)
